Target: T1, wild-type LRRK2 (Homo sapiens, UniProt Q5S007)
T1 construct: DNA tag for qPCR detection (not a peptide; the protein part that carries it is not described); made in house; host or cells: HEK 293 cells (the same paragraph also describes T7 phage grown in E. coli BL21)
Experiment: Inhibitory activity against LRRK2: competition binding to ligand-affinity beads, DNA-tagged kinase quantitated by qPCR
Details: % of ctrl; for remaining binding at 0.01 µM: 10 nM compound, read-out: LRRK2(WT) Remaining kinase activity(%) at 10 nM; for remaining binding at 0.05 µM: 50 nM compound, read-out: LRRK2(WT) Remaining kinase activity(%) at 50 nM
Description: Representative compounds synthesized in Example 1 were assayed for inhibitory activity against wild-type LRRK2 and mutant LRRK2 (G2019S), and the results are summarized in Tables 2 and 3. In brief, a T7 phase strain carrying the wild-type kinase consisting of amino acid residues from H970 to E2527 of human-derived LRRK2 (Accession no. NP_940980.3) or a T7 phase strain carrying the G2019S mutation kinase was infected into E. coli strain BL21 which was then grown until log phase. After infection with T7 phases (multiplicity of infection=0.4), the cells were cultured at 32° C. for 90-150 minutes while shaking. Then, E. coli lysates were centrifuged (6,000×g) and the supernatant was filtered through a 0.2-μm filter. The kinases were produced in HEK 293 cells. In this regard, DNA was tagged to obtain DNA-tagged kinases for qPCR detection. For use in analyzing the kinases, affinity resins were prepared by treating streptavidin-coated magnetic beads with biotinylated small molecule ligands at room temperature for 30 minutes. Then, the liganded beads were blocked with an excess of biotin and washed with a blocking buffer (SeaBlock (Pierce), 1% BSA, 0.05% Tween 20, 1 mM DTT) to remove unbound ligands and thus to reduce the binding of non-specific phages. […] After one hour of incubation, the affinity beads were washed with a wash buffer (1×PBS, 0.05% Tween 20), resuspended in an elution buffer (1×PBS, 0.05% Tween 20, 0.5 μM non-biotinylated affinity ligand), and incubated at room temperature for 30 minutes while shaking. Afterwards, concentrations of wild-type LRRK2 and mutant LRRK2 (G2019S) in the eluted samples were quantitated by qPCR. Activity values are expressed as percentages relative to the control (% of ctrl). The compounds used in the activity assay were prepared into 40× stocks in 100% DMSO. The stocks were directly diluted during analysis procedures.
Table 2 includes inhibitory activities of the representative compounds of the present disclosure at 100 nM against wild-type LRRK2 and mutant LRRK2 (G2019S) while Table 3 includes inhibitory activities of the representative compounds at 10 nM and 50 nM against wild-type LRRK2. (+++ less than 10%; ++ less than 30%; + less than 50%; −50% or higher)

T1 sequence (Q5S007 970-2527): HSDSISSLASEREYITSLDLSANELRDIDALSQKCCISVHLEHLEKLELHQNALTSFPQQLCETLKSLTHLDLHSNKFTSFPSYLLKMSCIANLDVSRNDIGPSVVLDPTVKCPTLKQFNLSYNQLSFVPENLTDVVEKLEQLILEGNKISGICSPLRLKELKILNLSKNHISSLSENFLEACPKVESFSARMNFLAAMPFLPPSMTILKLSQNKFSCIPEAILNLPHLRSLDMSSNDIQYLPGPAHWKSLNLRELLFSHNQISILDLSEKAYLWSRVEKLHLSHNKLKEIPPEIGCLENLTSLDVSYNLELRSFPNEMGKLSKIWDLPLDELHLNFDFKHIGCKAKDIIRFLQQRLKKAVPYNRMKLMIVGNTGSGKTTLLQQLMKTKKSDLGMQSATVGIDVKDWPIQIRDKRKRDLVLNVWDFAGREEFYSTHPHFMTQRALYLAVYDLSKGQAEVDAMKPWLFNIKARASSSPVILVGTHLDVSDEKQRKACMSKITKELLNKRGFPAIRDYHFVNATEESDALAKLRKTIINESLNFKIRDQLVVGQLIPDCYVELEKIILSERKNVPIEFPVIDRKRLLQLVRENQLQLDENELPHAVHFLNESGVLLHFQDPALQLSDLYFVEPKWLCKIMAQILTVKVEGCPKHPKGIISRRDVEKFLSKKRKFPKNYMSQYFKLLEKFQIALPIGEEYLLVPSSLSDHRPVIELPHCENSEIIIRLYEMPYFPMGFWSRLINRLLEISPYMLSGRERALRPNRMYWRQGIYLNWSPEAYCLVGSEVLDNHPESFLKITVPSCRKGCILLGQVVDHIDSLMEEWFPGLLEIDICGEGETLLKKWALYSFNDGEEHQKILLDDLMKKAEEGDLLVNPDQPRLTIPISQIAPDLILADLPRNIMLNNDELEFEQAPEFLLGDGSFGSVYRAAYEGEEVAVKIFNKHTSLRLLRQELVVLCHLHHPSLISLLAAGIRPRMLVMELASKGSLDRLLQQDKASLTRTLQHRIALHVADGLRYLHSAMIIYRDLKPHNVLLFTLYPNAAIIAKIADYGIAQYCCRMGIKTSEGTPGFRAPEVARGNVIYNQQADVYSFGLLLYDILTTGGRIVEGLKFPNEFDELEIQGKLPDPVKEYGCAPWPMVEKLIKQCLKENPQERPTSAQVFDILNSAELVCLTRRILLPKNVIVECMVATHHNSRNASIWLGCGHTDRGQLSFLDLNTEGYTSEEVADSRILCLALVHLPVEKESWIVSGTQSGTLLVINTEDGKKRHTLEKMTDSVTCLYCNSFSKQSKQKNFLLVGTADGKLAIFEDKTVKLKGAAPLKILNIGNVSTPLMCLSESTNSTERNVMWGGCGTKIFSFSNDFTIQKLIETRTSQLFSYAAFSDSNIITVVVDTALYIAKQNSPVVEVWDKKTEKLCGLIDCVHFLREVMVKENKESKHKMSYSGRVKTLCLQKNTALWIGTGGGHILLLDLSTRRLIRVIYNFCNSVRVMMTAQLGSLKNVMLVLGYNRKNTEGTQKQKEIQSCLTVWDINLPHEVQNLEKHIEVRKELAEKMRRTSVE

SMILES: COc1cc(C(=O)NC2CCN(C)CC2)ccc1Nc1ncc(Cl)c(-c2cnn(C(C)C)c2)n1 [Compound 60, 4-((5-chloro-4-(1-isopropyl-1H-pyrazol-4-yl)pyrimidin-2-yl)amino)-3-methoxy-N-(1-methylpiperidin-4-yl)benzamide]
- remaining binding at 0.01 µM: < 50%
- remaining binding at 0.05 µM: < 10%

SMILES: COc1cc(C(=O)N2CCN(C)CC2)ccc1Nc1ncc(Cl)c(-c2cnn(C)c2)n1 [Compound 61, (4-((5-chloro-4-(1-methyl-1H-pyrazol-4-yl)pyrimidin-2-yl)amino)-3-methoxyphenyl)(4-methylpiperazin-1-yl)methanone]
- remaining binding at 0.01 µM: < 50%
- remaining binding at 0.05 µM: < 30%

SMILES: COc1cc(C(=O)N2CCN(C)CC2)ccc1Nc1ncc(Cl)c(-c2cnn(C(C)C)c2)n1 [Compound 62, (4-((5-chloro-4-(1-isopropyl-1H-pyrazol-4-yl)pyrimidin-2-yl)amino)-3-methoxyphenyl)(4-methylpiperazin-1-yl)methanone]
- remaining binding at 0.01 µM: < 30%
- remaining binding at 0.05 µM: < 10%

SMILES: COc1cc(C(=O)N2CCN(C(C)C)CC2)ccc1Nc1ncc(Cl)c(-c2cnn(C(C)C)c2)n1 [Compound 64, (4-((5-chloro-4-(1-isopropyl-1H-pyrazol-4-yl)pyrimidin-2-yl)amino)-3-methoxyphenyl)(4-isopropylpiperazin-1-yl)methanone]
- remaining binding at 0.01 µM: < 30%
- remaining binding at 0.05 µM: < 10%

SMILES: COc1cc(C(=O)N2CCC(C(C)(C)O)CC2)ccc1Nc1ncc(Cl)c(-c2cnn(C(C)C)c2)n1 [Compound 70, (4-((5-chloro-4-(1-isopropyl-1H-pyrazol-4-yl)pyrimidin-2-yl)amino)-3-methoxyphenyl)(4-(2-hydroxypropan-2-yl)piperidin-1-yl)methanone]
- remaining binding at 0.01 µM: < 50%
- remaining binding at 0.05 µM: < 30%

SMILES: COc1cc(C(=O)N2CCC3(CC2)COC3)ccc1Nc1ncc(Cl)c(-c2cnn(C(C)C)c2)n1 [Compound 71, (4-((5-chloro-4-(1-isopropyl-1H-pyrazol-4-yl)pyrimidin-2-yl)amino)-3-methoxyphenyl)(2-oxa-7-azaspiro[3.5]nonan-7-yl)methanone]
- remaining binding at 0.01 µM: < 50%
- remaining binding at 0.05 µM: < 30%

SMILES: COc1cc(C(=O)N2CC(N3CCOCC3)C2)ccc1Nc1ncc(Cl)c(-c2cnn(C(C)C)c2)n1 [Compound 73, (4-((5-chloro-4-(1-isopropyl-1H-pyrazol-4-yl)pyrimidin-2-yl)amino)-3-methoxyphenyl)(3-morpholinoazetidin-1-yl)methanone]
- remaining binding at 0.01 µM: < 50%
- remaining binding at 0.05 µM: < 30%

SMILES: COc1cc(C(=S)N2CCOCC2)ccc1Nc1ncc(Cl)c(-c2cnn(C(C)C)c2)n1 [Compound 74, (4-((5-chloro-4-(1-isopropyl-1H-pyrazol-4-yl)pyrimidin-2-yl)amino)-3-methoxyphenyl)(morpholino)methanethione]
- remaining binding at 0.01 µM: < 50%
- remaining binding at 0.05 µM: < 10%

SMILES: COc1cc(C(=O)N2CCC(OC)CC2)ccc1Nc1ncc(Cl)c(-c2cnn(C(C)C)c2)n1 [Compound 76, (4-((5-chloro-4-(1-isopropyl-1H-pyrazol-4-yl)pyrimidin-2-yl)amino)-3-methoxyphenyl)(4-methoxypiperidin-1-yl)methanone]
- remaining binding at 0.01 µM: < 50%
- remaining binding at 0.05 µM: < 30%

SMILES: COc1cc(C(=O)N2CCC3(CCOCC3)CC2)ccc1Nc1ncc(Cl)c(-c2cnn(C(C)C)c2)n1 [Compound 77, (4-((5-chloro-4-(1-isopropyl-1H-pyrazol-4-yl)pyrimidin-2-yl)amino)-3-methoxyphenyl)(3-oxa-9-azaspiro[5.5]undecan-9-yl)methanone]
- remaining binding at 0.01 µM: < 50%
- remaining binding at 0.05 µM: < 30%

SMILES: COc1cc(C(=O)N2CCN(C(C)=O)CC2)ccc1Nc1ncc(Cl)c(-c2cnn(C(C)C)c2)n1 [Compound 78, 1-(4-(4-((5-chloro-4-(1-isopropyl-1H-pyrazol-4-yl)pyrimidin-2-yl)amino)-3-methoxybenzoyl)piperazin-1-yl)ethan-1-one]
- remaining binding at 0.01 µM: < 50%
- remaining binding at 0.05 µM: < 10%

SMILES: COc1cc(C(=O)N2CCC(S(C)(=O)=O)CC2)ccc1Nc1ncc(Cl)c(-c2cnn(C(C)C)c2)n1 [Compound 79, (4-((5-chloro-4-(1-isopropyl-1H-pyrazol-4-yl)pyrimidin-2-yl)amino)-3-methoxyphenyl)(4-(methylsulfonyl)piperidin-1-yl)methanone]
- remaining binding at 0.01 µM: < 50%
- remaining binding at 0.05 µM: < 10%

SMILES: COc1cc(C(=O)NC2CCOCC2)ccc1Nc1ncc(Cl)c(-c2cnn(C(C)C)c2)n1 [Compound 80, 4-((5-chloro-4-(1-isopropyl-1H-pyrazol-4-yl)pyrimidin-2-yl)amino)-3-methoxy-N-(tetrahydro-2H-pyran-4-yl)benzamide]
- remaining binding at 0.01 µM: < 50%
- remaining binding at 0.05 µM: < 30%

SMILES: COc1cc(C(=O)NC2CC2)ccc1Nc1ncc(Cl)c(-c2cnn(C(C)C)c2)n1 [Compound 82, 4-((5-chloro-4-(1-isopropyl-1H-pyrazol-4-yl)pyrimidin-2-yl)amino)-N-cyclopropyl-3-methoxybenzamide]
- remaining binding at 0.01 µM: < 50%
- remaining binding at 0.05 µM: < 30%

SMILES: COc1cc(C(=O)N2CCS(=O)(=O)CC2)ccc1Nc1ncc(Cl)c(-c2cnn(C(C)C)c2)n1 [Compound 84, (4-((5-chloro-4-(1-isopropyl-1H-pyrazol-4-yl)pyrimidin-2-yl)amino)-3-methoxyphenyl)(1,1-dioxidothiomorpholino)methanone]
- remaining binding at 0.01 µM: < 50%
- remaining binding at 0.05 µM: < 30%

SMILES: COc1cc(C(=O)N2CCN(C)CC2)ccc1Nc1ncc(Cl)c(-c2cnn(C(C)(C)C)c2)n1 [Compound 85, (4-((4-(1-(tert-butyl)-1H-pyrazol-4-yl)-5-chloropyrimidin-2-yl)amino)-3-methoxyphenyl)(4-methylpiperazin-1-yl)methanone]
- remaining binding at 0.01 µM: < 50%
- remaining binding at 0.05 µM: < 30%

SMILES: COc1cc(C(=O)N2CCN3CCCC3C2)ccc1Nc1ncc(Cl)c(-c2cnn(C(C)C)c2)n1 (stereo not shown) [Compound 87, (4-((5-chloro-4-(1-isopropyl-1H-pyrazol-4-yl)pyrimidin-2-yl)amino)-3-methoxyphenyl)(hexahydropyrrolo[1,2-a]pyrazin-2(1H)-yl)methanone]
- remaining binding at 0.01 µM: < 50%
- remaining binding at 0.05 µM: < 30%

SMILES: COc1cc(C(=O)N2CCN(C(C)C)CC2)ccc1Nc1ncc(Cl)c(-c2cnn(C(C)(C)C)c2)n1 [Compound 88, (4-((4-(1-(tert-butyl)-1H-pyrazol-4-yl)-5-chloropyrimidin-2-yl)amino)-3-methoxyphenyl)(4-isopropylpiperazin-1-yl)methanone]
- remaining binding at 0.01 µM: < 50%
- remaining binding at 0.05 µM: < 10%

SMILES: COc1cc(C(=O)N2C[C@H]3CC[C@@H](C2)O3)ccc1Nc1ncc(Cl)c(-c2cnn(C(C)C)c2)n1 [Compound 89, ((1R,5S)-8-oxa-3-azabicyclo[3.2.1]octan-3-yl)(4-((5-chloro-4-(1-isopropyl-1H-pyrazol-4-yl)pyrimidin-2-yl)amino)-3-methoxyphenyl)methanone]
- remaining binding at 0.01 µM: ≥ 50%
- remaining binding at 0.05 µM: < 30%

SMILES: COc1cc(C(=O)N2CC3(COC3)C2)ccc1Nc1ncc(Cl)c(-c2cnn(C(C)C)c2)n1 [Compound 90, (4-((5-chloro-4-(1-isopropyl-1H-pyrazol-4-yl)pyrimidin-2-yl)amino)-3-methoxyphenyl)(2-oxa-6-azaspiro[3.3]heptan-6-yl)methanone]
- remaining binding at 0.01 µM: ≥ 50%
- remaining binding at 0.05 µM: < 30%

SMILES: COc1cc(C(=O)NC2CCC(O)CC2)ccc1Nc1ncc(Cl)c(-c2cnn(C(C)C)c2)n1 (stereo not shown) [Compound 91, 4-((5-chloro-4-(1-isopropyl-1H-pyrazol-4-yl)pyrimidin-2-yl)amino)-N-((1r,4r)-4-hydroxycyclohexyl)-3-methoxybenzamide]
- remaining binding at 0.01 µM: ≥ 50%
- remaining binding at 0.05 µM: < 30%

SMILES: COc1cc(C(=O)NC2CCC(N(C)C)CC2)ccc1Nc1ncc(Cl)c(-c2cnn(C(C)C)c2)n1 (stereo not shown) [Compound 93, 4-((5-chloro-4-(1-isopropyl-1H-pyrazol-4-yl)pyrimidin-2-yl)amino)-N-(4-(dimethylamino)cyclohexyl)-3-methoxybenzamide]
- remaining binding at 0.01 µM: < 50%
- remaining binding at 0.05 µM: < 10%

SMILES: COc1cc(C(=O)N2CCC(N(C)C)CC2)ccc1Nc1ncc(Cl)c(-c2cnn(C(C)C)c2)n1 [Compound 94, (4-((5-chloro-4-(1-isopropyl-1H-pyrazol-4-yl)pyrimidin-2-yl)amino)-3-methoxyphenyl)(4-(dimethylamino)piperidin-1-yl)methanone]
- remaining binding at 0.01 µM: < 30%
- remaining binding at 0.05 µM: < 10%

Reference: patent publication US20240254103A9, “NOVEL PYRIMIDINE DERIVATIVE, AND COMPOSITION FOR PREVENTING OR TREATING NEURODEGENERATIVE DISEASES AND CANCER, COMPRISING SAME” (WHAN IN PHARMACEUTICAL CO., LTD., priority 2020, published 2024)
